In brackets after ≈: the same amount, converted by molar mass. Entries after “also recorded” stand apart in the source; their conditions may differ. Where two headings read alike, the source gives them in different places.
Columns and labels:
[1] = test system: fetal bovine serum as a source of pantetheinase activity; assay: Stability in vitro in fetal bovine serum (LC-MS); assay type: in vitro ADME
Description: FIG. 1: Inverted amides are stable in serum. The stability of pantothenamide CXP18.3-002 (A-C) and its corresponding inverted amide CXP18.6-006 (D-F) was measured using LC-MS analysis after overnight incubation in buffer (A and D), buffer with 10% fetal bovine serum (B and E) and buffer with 10% FBS supplemented with the vanin inhibitor RR6 (C-F). Fetal bovine serum contains a high level of vanin (pantetheinase) activity. Both compounds are stable after incubation in buffer alone (figure A and D). The small peaks in the amine channels, with molecular masses of 163 (A) en 191 (D), are either the result of disruption of compound during ionization (CXP18.3-002-sample) or background from the buffer (CXP18.6-006-sample). […] Explanation of masses and compounds: CXP18.3-002, exact mass 322.189, found at mass 305 (—H2O (18)+H^+(1)). Amine from CXP18.3-002, exact mass 121.089, found at 163 (+ACN(41) +H^+(1)). Pantothenic acid, exact mass 219.111, found at mass 220 (+H^+(1)). RR6, exact mass 293.163, found at 294 (+H^+(1)). CXP18.6-006, exact mass 322.189, found at mass 305 (—H2O (18) +H^+(1)). Amine from CXP18.6-006, exact mass 150.068, found at 151 (+H^+(1)).
Conventional pantothenamides are hydrolysed by pantetheinases in body fluids as shown before (Jansen et al 2013) thereby losing their antimicrobial activity (Jansen et al 2013, Spry et al 2013, PLoS One 8:e54974). Bioisosteric pantothenamides retained their in vitro antimicrobial activity in the presence of serum, as will be shown in the next examples. To examine the stability of analogues in vitro, CXP18.3-002 and its bioisostere CXP18.6-006 were incubated for 16 h at room temperature in PBS with 10% fetal bovine serum as a source of pantetheinase activity. Samples were taken and analyzed by LC-MS using a Shimadzu LC10ATvp HPLC coupled to a Shimadzu LCMS2010 A mass spectrometer. […] The hydrolysis of the pantothenamides by fetal bovine serum could be inhibited by the addition of RR6, a potent inhibitor of pantetheinase activity, as described before (Jansen en al 2013).

[2] = Pharmacokinetic study in rats; assay type: in vivo; details: rat, blood, 50 mg/kg in saline, oral administration
Description: To address the question if increased stability would also lead to improved bioavailability in vivo, a pharmacokinetic study was performed. Briefly, the pantothenamides N5-Pan (an antibacterial compound) and CXP18.3-002 (an antimalarial compound), and their corresponding inverted amides CXP18.6-013 and CXP18.6-006 were administered to rats at 50 mg/kg dissolved in saline. Blood samples were collected from 3 rats before the experiment and at 0.25, 0.5, 1, 2, 4, 6, 8, 12 and 24 h. The concentrations of the compounds were analyzed by LC-MS/MS (AB Sciex API-4000 system). Data were analyzed by the Non-compartmental analysis tool of Phoenix WinNonlin (Version 6.3).

Staphylococcus aureus = assay: Bacterial growth assay and MIC determination, S. aureus; assay type: cell-based; details: Staphylococcus aureus
Description: (§1) Strains of Escherichia coli, Staphylococcus aureus and Staphylococcus epidermidis, were grown overnight in 1% Bacto tryptone medium (BD, Sparks, Md.). Streptococcus pyogenes was grown overnight in Bacto Todd Hewitt Broth medium (BD, Sparks, Md.). Cultures were then diluted 1:1,000 in fresh assay medium supplemented with or without 20% fetal bovine serum (FBS; HyClone, Celbio, Logan, Utah) and added to 96-well sterile enzyme-linked immunosorbent assay (ELISA) plates (100 μl per well). The compounds to be tested were diluted in the medium without serum and added to the bacteria (100 μl per well). Plates were incubated at 37° C., and bacterial growth was monitored over time by reading the optical density at 490 nm using a microplate reader (model 450; Bio-Rad Laboratories Inc., Hercules, Calif.). Streptococcus pneumoniae strains were grown to mid-log phase (OD620 of 0.3) and stored in 15% glycerol at […] till further use. Minimal inhibitory concentration (MIC) of antibiotics was determined according to standard procedures. Bacteria were diluted 10-fold in Mueller-Hinton medium (BD, Sparks, Md.) and added to 96-well sterile ELISA plates (150 μl per well). The compounds to be tested were diluted in the medium without serum and added to the bacteria (150 μl per well). Plates were incubated overnight at 37° C. in 5% CO2. The MIC was defined as the lowest concentration of compound at which no growth was visible with the naked eye.

Escherichia coli = assay: Bacterial growth assay and MIC determination, E. coli; assay type: cell-based; details: Escherichia coli, serum −, read-out: MIC
Description: as §1

stability after overnight incubation in buffer ([1]; buffer alone)	stability in buffer with 10% FBS supplemented with the vanin inhibitor RR6 ([1]; overnight)	AUC(0-inf) [2] [ng·h/mL]	Cmax [2] [ng/mL]	Tmax [2] [h]	half-life ([2]; elimination phase) [h]	Structure (SMILES)	stability in buffer with 10% fetal bovine serum ([1]; PBS with 10% FBS, 16 h (overnight), room temperature)	MIC (Staphylococcus aureus; S. aureus, serum −, read-out: MIC) [µg/mL]	MIC (Staphylococcus aureus; Table 1, most sensitive species S. aureus (SA), read-out: MIC (μg/ml) for most sensitive bacterial species) [µg/mL]	MIC (Escherichia coli) [µg/mL]
stable	had no effect	6620	3360	0.33	3.6	CC(C)(CO)[C@@H](O)C(=O)NCCNC(=O)CCc1ccccc1 [CXP18.6-006]	remains intact; also recorded: No appreciable degradation			
						CC(C)(CO)[C@@H](O)C(=O)NCCNC(=O)CCc1ccccc1F [CXP18.6-017]		2 (≈ 5.88 µM)	2 (≈ 5.88 µM)	> 256

— patent publication US20180282279A1, “Pantothenamide Analogues” (Radboud Universitair Medisch Centrum, priority 2014, published 2018)
